Source: US20180133203A1, “METHODS OF TREATING LIVER DISEASE” (Gilead Sciences, Inc., priority 2016, published 2018)

Assays:
Col1a1 = test: Hepatic expression of Col1a1 by qRT-PCR, CDHFD/NaNO2 rat model of NASH; assay type: in vivo, male Wistar rats; settings: vs vehicle; rats; Formula (I) 0.2% in diet, Formula (III) 30 mg/kg/day, week 4 to 14
Description: The following study was conducted to evaluate the efficacy of the combination of an ASK1 inhibitor and an FXR agonist in a rodent model of non-alcoholic steatohepatitis (NASH), relative to the efficacy of the individual agents alone in the model. NASH was induced in male Wistar rats by administration of a choline-deficient high fat diet (CDHFD) combined with the chronic administration of sodium nitrite (CDHFD/NaNO2). The model capitalizes on the “two hit theory” of NASH by inducing both metabolic dysfunction (CDHFD) and oxidative stress (NaNO2) in the liver to result in hepatic fibrosis that is similar in character and severity to that seen in patients with advanced NASH. […] The following endpoints were assessed at the completion of the 14 week study: i) liver fibrosis measured by liver hydroxyproline (OHP) content and by quantitative morphometric analysis of collagen content by Picosirius red (PSR) staining; ii) myofibroblast activation in liver sections as measured by quantitative IHC of the myofibroblast marker desmin; and, iii) Col1a1 and Timp1 in liver tissue measured by RT-PCR. […] All endpoints were assessed at the completion of the 14 week study protocol. […] Quantitative PCR was performed and analyzed using Absolute QPCR Rox Mix (Life Technologies, Cat No # AB-1132) and a 384-format ABI 7900HT Sequence Detection System (Applied Biosystems). […]

FFD mice = test: Hepatic steatosis (% vacuolation area, H&E morphometry) in fast food diet (FFD) mouse model of NASH; assay type: in vivo, male C57BL/6 mice; settings: Formula (I) 0.15% admixture in diet, Formula (III) 10 mg/kg PO QD, months 7-10
Description: The following study was conducted to evaluate the efficacy of the combination of an ASK1 inhibitor and an FXR agonist in a mouse model of non-alcoholic steatohepatitis (NASH), relative to the efficacy of the individual agents alone in the model. NASH was induced in male C57BL/6 mice by chronic administration of a “fast food” diet (FFD) high in saturated fats, cholesterol and sugars for a total of 10 months, whereas lean control animals were maintained on a normal chow diet. A NASH phenotype was established in FFD mice compared to control mice by 7 months, and was characterized by obesity, hypercholesterolemia, and AST/ALT elevation; and by histological features of NASH such as hepatocellular macrovesicular steatosis and ballooning degeneration. […] Endpoint analyses included morphometric quantification of liver steatosis (% of steatotic area), liver cholesterol content, serum ALT/AST levels, serum bile acid levels, and nanostring evaluation of gene expression. […] Extent of steatosis was determined on H&E stained tissue sections using the Definiens Developer software package. […] The number and size of these areas were enumerated and the total steatotic area was expressed as a percentage of total liver tissue cross-sectional area. […]

O=C(Nc1cccc(-c2nncn2C2CC2)c1)c1cc(-n2cnc(C3CC3)c2)ccn1 [Formula (I)]
reduction of hepatic Col1a1 expression induced by CDHFD/NaNO2 (Col1a1): 65%
reduction in steatosis (H&E stained liver sections) (FFD mice): 39%

O=C(O)c1ccnc(N2CC(O)(c3ccc(OCc4c(-c5c(Cl)cccc5Cl)noc4C4CC4)cc3Cl)C2)c1 [Formula (III)]
reduction of hepatic Col1a1 expression induced by CDHFD/NaNO2 (Col1a1): 44%
reduction in steatosis (H&E stained liver sections) (FFD mice): 27%
